ChEMBL document CHEMBL1201862, “PubChem BioAssay data set” (2004)
Calls of active or inactive are those of the source.

Tests used:
[1] = biological target: SWI/SNF-related matrix-associated actin-dependent regulator of chromatin subfamily A member 2 (Homo sapiens, UniProt P51531); assay: Luminescence-based cell-based high throughput dose response assay to identify activators of the function of SWI/SNF related, matrix associated, actin dependent regulator of chromatin, subfamily a, member 2 (SMARCA2, BRM).; format: functional
Protein Rev = Protein Rev (Human immunodeficiency virus type 1 group M subtype B (isolate WMJ22)(HIV-1), UniProt P05866); assay: HIV-1 Rev-RRE RNA binding disruptors, dose response, biochemical, protein-RNA interaction (AID 842); design: species or system Human immunodeficiency virus 1
[2] = Counterscreen for activators of the function of SWI/SNF related, matrix associated, actin dependent regulator of chromatin, subfamily a, member 2 (SMARCA2, BRM): Luminescence-based cell-based high throughput dose response assay to identify non-selective compounds using the VP16 reporter assay.; format: functional
[3] = inhibitors of intracellular T. cruzi replication, confirmation, NIH3T3 host cells, beta-gal luminescence (AID 2044); format: functional, cell-based;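 also: intracellular parasites grown in NIH/3T3 mouse fibroblasts as host cells; luminescent beta-galactosidase reporter signal from transgenic T. cruzi replicating inside host cells; inhibitors lower the luminescence signal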
[4] = cytotoxicity toward NIH3T3 fibroblasts, dose response, counter-screen, cell-based, ATP luminescence, mouse fibroblasts (AID 2010); format: functional; details: NIH3T3;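 also: cells exposed to compound for about 90 hours before reading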
[5] = A cytotoxicity screen of small molecule inhibitors of the PhoP region in Salmonella typhi identified in the primary screen. [Related pubchem assays: 1850, 1864, 1985 ]; format: functional
[6] = HEp-2 cell cytotoxicity, dose response, cytotoxicity control for RSV inhibitor project, HTS (AID 2410); format: functional; details: human respiratory syncytial virus
Genome polyprotein = Genome polyprotein (dengue virus type 2, UniProt P29990); assay: Dengue-2 NS5 methyltransferase inhibitors, primary screen, biochemical, confirmation dose response (AID 588689); format: functional
[7] = biological target: T1, Long-chain-fatty-acid--AMP ligase FadD28 (Mycobacterium tuberculosis, UniProt P9WQ59); assay: Fluorescence polarization aasay to screen for inhibitors that compete for the binding of FadD28 to a bisubstrate Measured in Biochemical System Using Plate Reader - 2147-01_Inhibitor_Dose_CherryPick_Activity.; format: functional, Mycobacterium tuberculosis H37Rv
T1 sequence (P9WQ59 whole entry): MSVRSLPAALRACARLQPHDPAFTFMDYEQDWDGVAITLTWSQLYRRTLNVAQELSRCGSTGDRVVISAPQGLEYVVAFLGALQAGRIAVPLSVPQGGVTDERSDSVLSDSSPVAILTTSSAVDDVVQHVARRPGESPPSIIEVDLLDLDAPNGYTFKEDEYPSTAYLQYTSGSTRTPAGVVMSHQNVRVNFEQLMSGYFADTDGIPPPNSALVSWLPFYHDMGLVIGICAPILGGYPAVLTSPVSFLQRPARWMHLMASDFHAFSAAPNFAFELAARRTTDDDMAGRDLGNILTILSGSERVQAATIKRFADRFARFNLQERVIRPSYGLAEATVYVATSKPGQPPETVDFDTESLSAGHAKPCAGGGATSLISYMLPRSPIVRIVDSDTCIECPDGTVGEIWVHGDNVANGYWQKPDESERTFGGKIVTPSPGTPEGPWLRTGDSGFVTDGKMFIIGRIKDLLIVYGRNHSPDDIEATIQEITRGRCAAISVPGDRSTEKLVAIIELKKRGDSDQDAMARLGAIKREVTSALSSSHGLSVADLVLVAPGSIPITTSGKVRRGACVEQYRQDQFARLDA

[8] = inhibitors of Bluetongue virus cytopathic effect, confirmation, arbovirus, BSR cells (AID 1250); format: functional;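 also: protection from viral cytopathic effect measured as cell viability by ATP luminescence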
[9] = Counterscreen for IDE inhibitors: Luminescence-based cell-based high throughput dose response assay to identify compounds that are cytotoxic to HEK cells. [Related pubchem assays: 434962 (Primary screen (IDE inhibitors in singlicate)), 449730 (Counterscreen (Cytotoxicity in triplicate)), 435028 (Confirmation (IDE inhibitors in triplicate)) …; format: functional; details: HEK293
[10] = biological target: Glucose-6-phosphate 1-dehydrogenase (Homo sapiens, UniProt P11413); assay: human G6PD enzyme inhibitors, dose response, selectivity assay for P. falciparum G6PD inhibitor project, biochemical, fluorescence (AID 504792); format: functional
Insulin-degrading enzyme = biological target: T2, Insulin-degrading enzyme (Homo sapiens, UniProt P14735); assay: Dose Response: Fluorescence polarization-based cell-based high throughput dose response assay for inhibitors of insulin-degrading enzyme (IDE). [Related pubchem assays: 434962 (Primary screen (IDE inhibitors in singlicate)), 449730 (Counterscreen (Cytotoxicity in triplicate)), 435028 (Confirmation (IDE inhibitors in triplicate)), 434984 (Summary …; format: functional
T2 sequence (P14735 whole entry): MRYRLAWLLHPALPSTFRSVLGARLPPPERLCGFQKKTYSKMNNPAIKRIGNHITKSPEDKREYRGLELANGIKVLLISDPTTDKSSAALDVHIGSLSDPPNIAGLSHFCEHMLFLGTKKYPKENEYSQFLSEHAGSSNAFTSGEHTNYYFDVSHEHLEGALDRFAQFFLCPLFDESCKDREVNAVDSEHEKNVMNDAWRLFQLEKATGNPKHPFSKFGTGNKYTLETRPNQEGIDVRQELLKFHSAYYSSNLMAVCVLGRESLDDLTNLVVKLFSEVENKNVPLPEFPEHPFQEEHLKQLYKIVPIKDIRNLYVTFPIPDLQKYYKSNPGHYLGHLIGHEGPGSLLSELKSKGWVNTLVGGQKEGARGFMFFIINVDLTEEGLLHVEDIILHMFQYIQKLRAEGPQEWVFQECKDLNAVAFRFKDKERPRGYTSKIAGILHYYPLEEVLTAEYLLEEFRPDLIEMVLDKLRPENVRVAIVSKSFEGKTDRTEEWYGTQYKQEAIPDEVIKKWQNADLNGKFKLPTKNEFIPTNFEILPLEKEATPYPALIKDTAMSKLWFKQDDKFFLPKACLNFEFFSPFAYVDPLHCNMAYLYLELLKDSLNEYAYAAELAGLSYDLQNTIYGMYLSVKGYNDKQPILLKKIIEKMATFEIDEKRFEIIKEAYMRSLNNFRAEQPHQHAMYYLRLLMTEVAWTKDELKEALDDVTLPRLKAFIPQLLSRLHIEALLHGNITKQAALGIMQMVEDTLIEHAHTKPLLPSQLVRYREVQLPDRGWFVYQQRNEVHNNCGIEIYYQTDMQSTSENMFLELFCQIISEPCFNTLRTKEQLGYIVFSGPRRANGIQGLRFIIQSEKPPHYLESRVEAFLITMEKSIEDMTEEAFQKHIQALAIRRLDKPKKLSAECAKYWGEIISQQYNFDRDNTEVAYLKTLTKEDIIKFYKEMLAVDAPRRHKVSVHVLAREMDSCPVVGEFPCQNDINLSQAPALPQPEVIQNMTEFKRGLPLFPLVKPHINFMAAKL

[11] = biological target: T3, Voltage-gated N-type calcium channel alpha-1B subunit/Amyloid beta A4 precursor protein-binding family A member 1 (Homo sapiens, UniProt Q00975+Q02410); format: protein assay
[12] = biological target: DNA dC->dU-editing enzyme APOBEC-3A (Homo sapiens, UniProt P31941); assay: APOBEC3A DNA deaminase inhibitors, dose response, biochemical (AID 504722); format: functional
[13] = biological target: T3, Voltage-gated N-type calcium channel alpha-1B subunit/Amyloid beta A4 precursor protein-binding family A member 1; format: protein assay; remark: listed apart in the source
[14] = biological target: T4, Rac GTPase-activating protein 1 (Homo sapiens, UniProt Q9H0H5); assay: MgcRacGAP GTPase-activating activity inhibitors, confirmation, biochemical, ADP Hunter fluorescence, primary and confirmatory (AID 624330); format: functional
T4 sequence (Q9H0H5 whole entry): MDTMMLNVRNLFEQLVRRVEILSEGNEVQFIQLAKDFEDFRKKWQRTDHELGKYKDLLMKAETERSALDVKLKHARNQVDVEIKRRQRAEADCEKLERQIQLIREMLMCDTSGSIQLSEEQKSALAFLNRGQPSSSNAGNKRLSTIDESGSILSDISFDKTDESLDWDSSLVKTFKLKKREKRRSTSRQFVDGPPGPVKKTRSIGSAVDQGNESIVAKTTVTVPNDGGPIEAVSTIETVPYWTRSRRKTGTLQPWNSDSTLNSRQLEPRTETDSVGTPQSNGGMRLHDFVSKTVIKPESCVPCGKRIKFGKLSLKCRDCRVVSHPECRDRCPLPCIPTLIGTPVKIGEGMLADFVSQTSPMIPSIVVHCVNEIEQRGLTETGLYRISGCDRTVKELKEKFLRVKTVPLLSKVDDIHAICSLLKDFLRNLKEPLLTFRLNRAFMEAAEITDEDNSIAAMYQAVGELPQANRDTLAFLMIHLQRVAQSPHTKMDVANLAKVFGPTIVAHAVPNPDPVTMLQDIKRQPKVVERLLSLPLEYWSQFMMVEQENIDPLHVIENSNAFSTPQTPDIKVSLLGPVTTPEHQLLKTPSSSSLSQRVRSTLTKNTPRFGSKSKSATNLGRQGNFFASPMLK

[15] = biological target: T5, Histone-lysine N-methyltransferase NSD2 (Homo sapiens, UniProt O96028); format: biochemical
T5 sequence (O96028 whole entry): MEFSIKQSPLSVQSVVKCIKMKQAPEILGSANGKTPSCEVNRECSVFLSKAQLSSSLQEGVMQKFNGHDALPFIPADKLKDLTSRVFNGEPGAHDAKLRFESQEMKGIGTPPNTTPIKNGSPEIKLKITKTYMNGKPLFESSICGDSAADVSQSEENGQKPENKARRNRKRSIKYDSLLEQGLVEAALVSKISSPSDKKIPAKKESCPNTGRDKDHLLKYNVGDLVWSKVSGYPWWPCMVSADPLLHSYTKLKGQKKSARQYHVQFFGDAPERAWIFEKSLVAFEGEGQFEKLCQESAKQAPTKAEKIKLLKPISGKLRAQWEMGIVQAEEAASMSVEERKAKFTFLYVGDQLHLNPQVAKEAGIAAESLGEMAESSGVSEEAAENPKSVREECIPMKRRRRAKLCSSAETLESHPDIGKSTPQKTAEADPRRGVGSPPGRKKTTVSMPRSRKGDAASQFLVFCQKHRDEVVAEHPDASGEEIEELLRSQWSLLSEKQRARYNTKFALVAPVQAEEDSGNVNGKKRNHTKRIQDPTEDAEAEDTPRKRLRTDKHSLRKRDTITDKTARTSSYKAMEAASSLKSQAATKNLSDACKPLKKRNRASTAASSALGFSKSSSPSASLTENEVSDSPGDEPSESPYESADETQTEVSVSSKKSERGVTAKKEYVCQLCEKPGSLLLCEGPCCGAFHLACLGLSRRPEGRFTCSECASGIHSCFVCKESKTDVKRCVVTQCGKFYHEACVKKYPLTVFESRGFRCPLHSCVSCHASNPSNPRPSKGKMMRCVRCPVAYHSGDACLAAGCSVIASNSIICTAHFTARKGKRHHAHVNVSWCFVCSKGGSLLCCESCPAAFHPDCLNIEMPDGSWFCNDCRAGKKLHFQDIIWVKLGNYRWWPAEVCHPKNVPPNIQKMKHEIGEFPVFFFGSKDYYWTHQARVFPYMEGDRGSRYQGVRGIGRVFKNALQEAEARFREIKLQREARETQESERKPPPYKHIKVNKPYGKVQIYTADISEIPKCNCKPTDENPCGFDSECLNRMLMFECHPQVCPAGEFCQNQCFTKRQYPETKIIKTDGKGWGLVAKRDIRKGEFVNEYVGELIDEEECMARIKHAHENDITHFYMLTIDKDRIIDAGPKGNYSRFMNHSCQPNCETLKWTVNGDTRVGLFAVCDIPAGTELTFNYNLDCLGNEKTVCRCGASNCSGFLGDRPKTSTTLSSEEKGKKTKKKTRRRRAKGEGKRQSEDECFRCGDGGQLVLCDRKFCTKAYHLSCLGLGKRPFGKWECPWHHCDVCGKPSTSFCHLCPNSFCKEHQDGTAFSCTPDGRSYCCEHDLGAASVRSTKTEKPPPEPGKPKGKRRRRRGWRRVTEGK

[16] = Luminescence Cell-Based Dose Retest to Confirm Inhibitors of Cancer Stem Cells. [Related pubchem assays (depositor defined):AID2717, AID2721]; format: functional, Homo sapiens; details: Homo sapiens

T3 sequence (Q00975 whole entry): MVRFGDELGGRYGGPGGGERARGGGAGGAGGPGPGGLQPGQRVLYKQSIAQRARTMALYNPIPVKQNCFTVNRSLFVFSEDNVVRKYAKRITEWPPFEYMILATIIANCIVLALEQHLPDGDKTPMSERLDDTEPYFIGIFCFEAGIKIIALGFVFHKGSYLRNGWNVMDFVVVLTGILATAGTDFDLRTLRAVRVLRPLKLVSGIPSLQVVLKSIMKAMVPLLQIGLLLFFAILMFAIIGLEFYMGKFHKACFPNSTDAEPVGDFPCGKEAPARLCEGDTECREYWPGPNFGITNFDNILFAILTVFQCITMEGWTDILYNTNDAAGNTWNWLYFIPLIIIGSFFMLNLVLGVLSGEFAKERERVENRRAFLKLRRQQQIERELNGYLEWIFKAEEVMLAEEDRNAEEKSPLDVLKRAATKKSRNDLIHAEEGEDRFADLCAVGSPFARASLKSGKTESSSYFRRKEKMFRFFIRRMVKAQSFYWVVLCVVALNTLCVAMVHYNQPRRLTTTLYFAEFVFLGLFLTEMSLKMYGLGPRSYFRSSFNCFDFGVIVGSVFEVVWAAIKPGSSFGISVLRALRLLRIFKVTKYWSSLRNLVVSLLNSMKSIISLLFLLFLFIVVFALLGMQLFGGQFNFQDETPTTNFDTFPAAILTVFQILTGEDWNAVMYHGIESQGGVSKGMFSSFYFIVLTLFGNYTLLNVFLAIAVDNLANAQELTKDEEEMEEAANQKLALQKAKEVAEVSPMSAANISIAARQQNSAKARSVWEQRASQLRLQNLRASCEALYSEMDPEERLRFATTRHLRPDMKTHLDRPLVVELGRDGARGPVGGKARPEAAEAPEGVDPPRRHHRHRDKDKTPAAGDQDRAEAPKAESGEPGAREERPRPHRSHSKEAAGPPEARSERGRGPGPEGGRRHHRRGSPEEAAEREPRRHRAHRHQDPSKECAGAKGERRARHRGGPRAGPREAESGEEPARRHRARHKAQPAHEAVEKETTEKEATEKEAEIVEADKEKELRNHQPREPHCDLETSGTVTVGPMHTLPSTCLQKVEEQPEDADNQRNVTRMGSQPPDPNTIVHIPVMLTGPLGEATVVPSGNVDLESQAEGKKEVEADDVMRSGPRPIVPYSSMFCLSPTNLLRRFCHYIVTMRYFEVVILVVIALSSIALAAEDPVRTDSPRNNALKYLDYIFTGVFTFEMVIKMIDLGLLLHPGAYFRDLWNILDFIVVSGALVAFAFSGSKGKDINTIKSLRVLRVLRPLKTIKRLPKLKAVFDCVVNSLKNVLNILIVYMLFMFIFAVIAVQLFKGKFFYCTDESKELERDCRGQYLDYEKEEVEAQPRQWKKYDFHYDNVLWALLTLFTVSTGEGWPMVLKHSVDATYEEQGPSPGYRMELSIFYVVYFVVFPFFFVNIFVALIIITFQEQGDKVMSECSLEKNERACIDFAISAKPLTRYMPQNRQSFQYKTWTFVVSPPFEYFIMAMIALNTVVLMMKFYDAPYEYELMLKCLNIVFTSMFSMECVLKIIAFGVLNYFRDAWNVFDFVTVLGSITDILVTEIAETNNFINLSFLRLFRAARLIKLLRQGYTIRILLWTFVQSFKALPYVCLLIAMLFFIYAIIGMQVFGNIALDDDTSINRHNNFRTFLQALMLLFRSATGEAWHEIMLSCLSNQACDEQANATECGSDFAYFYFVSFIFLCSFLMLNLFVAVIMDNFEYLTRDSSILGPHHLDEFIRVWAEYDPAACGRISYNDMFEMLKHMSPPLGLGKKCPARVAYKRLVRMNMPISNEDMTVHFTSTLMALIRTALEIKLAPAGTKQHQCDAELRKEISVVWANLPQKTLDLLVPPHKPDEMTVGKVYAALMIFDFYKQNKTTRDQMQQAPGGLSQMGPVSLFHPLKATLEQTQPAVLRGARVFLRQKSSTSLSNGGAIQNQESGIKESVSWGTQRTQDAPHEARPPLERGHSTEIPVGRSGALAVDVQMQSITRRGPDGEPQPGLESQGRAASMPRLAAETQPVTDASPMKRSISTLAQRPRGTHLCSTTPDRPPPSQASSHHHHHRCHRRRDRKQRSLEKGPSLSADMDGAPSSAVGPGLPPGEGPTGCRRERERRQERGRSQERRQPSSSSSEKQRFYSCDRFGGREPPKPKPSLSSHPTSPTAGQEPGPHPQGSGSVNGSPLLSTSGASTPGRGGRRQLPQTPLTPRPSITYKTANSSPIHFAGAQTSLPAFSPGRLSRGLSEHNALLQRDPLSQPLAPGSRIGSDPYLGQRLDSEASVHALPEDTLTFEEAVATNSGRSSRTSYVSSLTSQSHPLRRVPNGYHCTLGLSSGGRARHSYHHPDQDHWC
T3 sequence (Q02410 whole entry): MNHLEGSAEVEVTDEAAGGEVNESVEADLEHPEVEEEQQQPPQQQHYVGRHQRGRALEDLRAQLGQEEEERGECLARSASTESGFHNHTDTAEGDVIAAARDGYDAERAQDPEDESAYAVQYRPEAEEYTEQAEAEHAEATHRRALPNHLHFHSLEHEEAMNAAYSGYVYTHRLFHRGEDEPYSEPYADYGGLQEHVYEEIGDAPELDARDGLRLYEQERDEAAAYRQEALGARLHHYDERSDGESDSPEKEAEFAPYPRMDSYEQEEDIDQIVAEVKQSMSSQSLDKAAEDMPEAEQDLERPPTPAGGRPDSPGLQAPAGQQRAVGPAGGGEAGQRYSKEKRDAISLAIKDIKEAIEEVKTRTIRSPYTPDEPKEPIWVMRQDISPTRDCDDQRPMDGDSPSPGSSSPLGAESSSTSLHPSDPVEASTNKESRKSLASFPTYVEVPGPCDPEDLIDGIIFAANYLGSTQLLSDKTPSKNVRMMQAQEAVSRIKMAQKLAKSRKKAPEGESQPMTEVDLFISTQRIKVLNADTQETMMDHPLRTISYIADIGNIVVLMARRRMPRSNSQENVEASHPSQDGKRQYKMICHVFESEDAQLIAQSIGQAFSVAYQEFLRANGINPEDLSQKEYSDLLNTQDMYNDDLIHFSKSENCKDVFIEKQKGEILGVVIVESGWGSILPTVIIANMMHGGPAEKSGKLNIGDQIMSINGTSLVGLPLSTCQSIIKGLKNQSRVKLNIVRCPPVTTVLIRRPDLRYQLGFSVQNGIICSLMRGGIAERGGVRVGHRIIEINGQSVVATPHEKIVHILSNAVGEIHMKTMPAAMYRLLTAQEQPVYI
Sequence of Protein Rev (P05866 whole entry): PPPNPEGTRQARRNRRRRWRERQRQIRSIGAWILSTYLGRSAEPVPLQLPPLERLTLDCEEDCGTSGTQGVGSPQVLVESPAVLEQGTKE
Sequence of DNA dC->dU-editing enzyme APOBEC-3A (P31941 whole entry): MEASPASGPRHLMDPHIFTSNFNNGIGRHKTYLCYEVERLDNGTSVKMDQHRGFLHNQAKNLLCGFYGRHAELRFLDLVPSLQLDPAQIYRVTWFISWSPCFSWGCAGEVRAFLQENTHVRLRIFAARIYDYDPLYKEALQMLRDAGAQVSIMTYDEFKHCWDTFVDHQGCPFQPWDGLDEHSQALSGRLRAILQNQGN
Sequence of Genome polyprotein (P29990 2492-3391 limits assumed): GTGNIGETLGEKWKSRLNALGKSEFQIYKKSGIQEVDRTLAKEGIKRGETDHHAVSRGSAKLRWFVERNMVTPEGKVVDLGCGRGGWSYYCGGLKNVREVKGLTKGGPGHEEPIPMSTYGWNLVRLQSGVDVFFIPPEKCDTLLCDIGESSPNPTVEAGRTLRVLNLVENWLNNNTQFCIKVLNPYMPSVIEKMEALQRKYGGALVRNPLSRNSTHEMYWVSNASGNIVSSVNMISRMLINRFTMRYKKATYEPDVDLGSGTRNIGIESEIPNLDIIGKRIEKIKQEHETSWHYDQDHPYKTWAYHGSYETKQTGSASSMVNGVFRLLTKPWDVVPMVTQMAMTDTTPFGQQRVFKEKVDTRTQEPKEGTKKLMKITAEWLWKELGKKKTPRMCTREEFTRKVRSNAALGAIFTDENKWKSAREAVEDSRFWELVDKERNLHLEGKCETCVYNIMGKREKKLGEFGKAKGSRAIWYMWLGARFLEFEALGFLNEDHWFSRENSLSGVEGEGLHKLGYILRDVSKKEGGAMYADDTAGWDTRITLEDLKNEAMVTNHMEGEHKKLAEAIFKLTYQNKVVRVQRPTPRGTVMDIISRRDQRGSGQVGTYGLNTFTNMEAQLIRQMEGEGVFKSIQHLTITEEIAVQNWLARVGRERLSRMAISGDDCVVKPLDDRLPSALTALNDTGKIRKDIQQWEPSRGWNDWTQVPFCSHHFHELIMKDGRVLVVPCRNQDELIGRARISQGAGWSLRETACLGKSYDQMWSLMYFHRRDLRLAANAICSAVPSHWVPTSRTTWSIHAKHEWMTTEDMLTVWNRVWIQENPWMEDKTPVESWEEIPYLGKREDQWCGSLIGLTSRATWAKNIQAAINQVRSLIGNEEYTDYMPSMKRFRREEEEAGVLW
Sequence of Glucose-6-phosphate 1-dehydrogenase (P11413 whole entry): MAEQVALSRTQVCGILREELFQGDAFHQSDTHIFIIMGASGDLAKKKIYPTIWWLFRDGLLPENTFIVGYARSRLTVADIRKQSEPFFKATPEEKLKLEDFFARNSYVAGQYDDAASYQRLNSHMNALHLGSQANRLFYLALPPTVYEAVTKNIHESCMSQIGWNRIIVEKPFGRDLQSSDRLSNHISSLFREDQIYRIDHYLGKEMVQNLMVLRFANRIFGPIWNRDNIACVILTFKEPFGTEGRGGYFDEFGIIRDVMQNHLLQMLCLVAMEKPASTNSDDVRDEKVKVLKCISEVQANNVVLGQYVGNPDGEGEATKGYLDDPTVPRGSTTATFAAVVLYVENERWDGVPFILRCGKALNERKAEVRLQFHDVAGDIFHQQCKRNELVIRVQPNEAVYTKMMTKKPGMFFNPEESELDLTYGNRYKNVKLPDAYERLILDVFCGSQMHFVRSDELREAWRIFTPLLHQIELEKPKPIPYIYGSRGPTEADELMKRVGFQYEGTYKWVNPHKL

With `Cc1nc(Nc2ccncc2)c2oc3ccccc3c2n1` the EC50 [1] was > 91.2 µM (inactive), the IC50 (Protein Rev) was > 79.4 µM (not active) and the EC50 [2] was > 91.2 µM (inactive). For the same compound, the EC50 [3] was 2.47 µM (active) and the EC50 [4] was > 60 µM (not active).

In the case of `COc1cccc(CNS(=O)(=O)c2ccc3c(c2)NC(=O)CS3)c1`, the EC50 [5] was > 50 µM (active).

In the case of `O=C(O)CC/C(=C\c1ccc(N2CCCC2)c([N+](=O)[O-])c1)c1nc2ccccc2s1`, the CC50 [6] was 33.3 µM (active), the IC50 (Genome polyprotein) was 43.1 µM (active) and the AC50 [7] was > 100 µM (inactive). For the same compound, the IC50 [8] was 27.8 µM (active).

For `COc1ccc(OC)c(-n2c(SCC(=O)NCc3ccco3)nnc2-c2c[nH]c3ccccc23)c1`, the IC50 (cells) was > 50 µM (active).

With `Cc1cc(C)c2c(=O)n(CC(=O)Nc3ccc(Br)c(C)c3)sc2n1` the IC50 [9] was 17.5 µM (not active), the IC50 [10] was 49.2 µM (inactive) and the IC50 (Insulin-degrading enzyme) was 4.54 µM (active). The IC50 [11] was > 56.8 µM (not active), the IC50 [12] was > 100 µM (inactive) and the IC50 [13] was > 50 µM (inactive).

For `COc1ccccc1NC1=NC(c2ccc(Cl)cc2)N=C(N)N1` (stereo unspecified), the IC50 (Protein Rev) was > 79.4 µM (not active).

In the case of `CC(=N)/C(C#N)=C(/O)COc1ccc(Cl)cc1Cl`, the CC50 [6] was > 50 µM (active) and the IC50 (cells) was 49.6 µM (active).

In the case of `N#C/C(=C/c1ccc(O)c(O)c1)C(=O)NCc1ccc(Cl)cc1`, the IC50 [14] was 34.5 µM (active), the IC50 [9] was 35.9 µM (not active) and the AC50 [15] was 5.16 µM (active). For the same compound, the IC50 (Insulin-degrading enzyme) was 11.6 µM (not active) and the AC50 [16] was 6.32 µM (active).

With `O=C(Cc1ccc(Br)cc1)c1ccc(O)cc1O` the EC50 [5] was > 50 µM (active).
